Marks after values point to notes of the source that are not given here.
Tested on: TNF-α
Assay: TNF-α release from murine osteoblast (culture supernatant cytokine assay)
Format: cell-based, mouse
Conditions: 24 hours culture
[1] = osteoblast of non-treated mouse, 10^-9 M, control 23.5
[2] = osteoblast of non-treated mouse, 10^-10 M, control 23.5
[3] = osteoblast of non-treated mouse, 10^-11 M, control 23.5
[4] = osteoblast of ovariectomized mouse, 10^-9 M, control 45.0
[5] = osteoblast of ovariectomized mouse, 10^-10 M, control 45.0
[6] = osteoblast of ovariectomized mouse, 10^-11 M, control 45.0

| SMILES | TNF-α [1] | TNF-α [2] [pg/mL] | TNF-α [3] [pg/mL] | TNF-α [4] | TNF-α [5] | TNF-α [6] [pg/mL] |
| --- | --- | --- | --- | --- | --- | --- |
| C#C[C@]1(O)CC[C@H]2[C@@H]3CCC4=Cc5oncc5C[C@]4(C)[C@H]3CC[C@@]21C [Danazol, danazol] | 26.1** pg/ml | 24.3 | 24.0 | 47.5** pg/ml | 45.3 pg/mL | 45.3 |
| C[C@]12CCC3=C4CCC(=O)C=C4CC[C@H]3[C@@H]1CC[C@@]2(O)CC#N [Dienogest, 17 α-cyanomethyl-17β-hydroxy-estra-4,9(10)-dien-3-one] | 14.8** pg/ml | 24.4 | 24.7 | 22.3** pg/ml | 29.8** pg/ml | 44.4 |
| CC(=O)O[C@]1(C(C)=O)CC[C@H]2[C@@H]3C[C@H](C)C4=CC(=O)CC[C@]4(C)[C@H]3CC[C@@]21C [MPA, medroxyprogesterone acetate] | 31.4** pg/ml | 25.3 | 25.5 | 47.6* pg/ml | 46.1 pg/mL | 44.6 |
